# Results taken from PubChem BioAssay AID220 (DTP/NCI, 2004).
# “And” between values parts separate entries of the source, which are not always exact repeats. Equal values may be shown once. Inconclusive results are not listed.
# Test system: CD8F1 mice, subcutaneous mammary adenocarcinoma, T/C%
# Assay: NCI In Vivo Anticancer Drug Screen. Data for tumor model Mammary Adenocarcinoma CD8F1 (subcutaneous) in CD8F1
# Settings: higher = larger tumour
# In short: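 Ratio of treated to vehicle-control outcome, based on either survival or tumor size, in mice bearing transplantable tumors given the test compound.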
# [1] = endpoint: median tumor weight (est.), dose: 25.0 mg/kg/injection, schedule: Q07DX005 (ip), vehicle: saline
# [2] = endpoint: median tumor weight (est.), dose: 50.0 mg/kg/injection, schedule: Q07DX005 (ip), vehicle: saline
# [3] = endpoint: median tumor weight (est.), dose: 200.0 mg/kg/injection, schedule: Q07DX005 (ip), vehicle: saline
# [4] = endpoint: median tumor weight (est.), dose: 12.5 mg/kg/injection, schedule: Q07DX005 (ip), vehicle: Klucel (hydroxypropylcellulose) (HPC)
# [5] = endpoint: median tumor weight (est.), dose: 25.0 mg/kg/injection, schedule: Q07DX005 (ip), vehicle: Klucel (hydroxypropylcellulose) (HPC)
# [6] = endpoint: median tumor weight (est.), dose: 50.0 mg/kg/injection, schedule: Q07DX005 (ip), vehicle: Klucel (hydroxypropylcellulose) (HPC)
# [7] = endpoint: median tumor weight (est.), dose: 100.0 mg/kg/injection, schedule: Q07DX005 (ip), vehicle: Klucel (hydroxypropylcellulose) (HPC)
# [8] = endpoint: median tumor weight (est.), dose: 200.0 mg/kg/injection, schedule: Q07DX005 (ip), vehicle: Klucel (hydroxypropylcellulose) (HPC)
# [9] = endpoint: median tumor weight (est.), dose: 400.0 mg/kg/injection, schedule: Q07DX005 (ip), vehicle: Klucel (hydroxypropylcellulose) (HPC)
# [10] = endpoint: median tumor weight change, dose: 3.12 mg/kg/injection, schedule: Q01DX001 (ip), vehicle: saline
# [11] = endpoint: median tumor weight change, dose: 25.0 mg/kg/injection, schedule: Q01DX001 (ip), vehicle: saline with Tween-80
compound,measurement,setting,value
O.O.[NH-]C1CCCCC1[NH-].[Pt+2] (configuration not stated),T/C,"endpoint: median tumor weight (est.), dose: 0.62 mg/kg/injection, schedule: Q07DX005 (ip), vehicle: dextrose",50 % of control
same,T/C,"endpoint: median tumor weight (est.), dose: 20.0 mg/kg/injection, schedule: Q07DX005 (ip), vehicle: dextrose",69 % of control
same,T/C,"endpoint: median tumor weight (est.), dose: 40.0 mg/kg/injection, schedule: Q07DX005 (ip), vehicle: dextrose",39 % of control
CC(C)(C)c1ccc(CN2CCN(C(c3ccccc3)c3ccc(Cl)cc3)CC2)cc1 (configuration not stated),T/C,"endpoint: median tumor weight change, dose: 8.0 mg/kg/injection, schedule: Q01DX001 (ip), vehicle: Klucel (hydroxypropylcellulose) (HPC)",98 % of control
same,T/C,"endpoint: median tumor weight change, dose: 16.0 mg/kg/injection, schedule: Q01DX001 (ip), vehicle: Klucel (hydroxypropylcellulose) (HPC)",96 % of control
same,T/C,"endpoint: median tumor weight change, dose: 32.0 mg/kg/injection, schedule: Q01DX001 (ip), vehicle: Klucel (hydroxypropylcellulose) (HPC)",101 % of control
same,T/C,"endpoint: median tumor weight change, dose: 64.0 mg/kg/injection, schedule: Q01DX001 (ip), vehicle: Klucel (hydroxypropylcellulose) (HPC)",108 % of control
same,T/C,"endpoint: median tumor weight change, dose: 128.0 mg/kg/injection, schedule: Q01DX001 (ip), vehicle: Klucel (hydroxypropylcellulose) (HPC)",55 % of control
same,T/C,"endpoint: median tumor weight change, dose: 256.0 mg/kg/injection, schedule: Q01DX001 (ip), vehicle: Klucel (hydroxypropylcellulose) (HPC)",84 % of control
N=C(N)c1ccc(/C=C/c2ccc(C(=N)N)cc2O)cc1,T/C,"endpoint: median tumor weight (est.), dose: 12.5 mg/kg/injection, schedule: Q07DX005 (ip), vehicle: water",75 % of control and 76 % of control
BrCCC1(CCBr)CCCCC1,T/C,"endpoint: median tumor weight change, dose: 125.0 mg/kg/injection, schedule: Q01DX001 (ip), vehicle: other",80 % of control
same,T/C,"endpoint: median tumor weight change, dose: 250.0 mg/kg/injection, schedule: Q01DX001 (ip), vehicle: other",79 % of control
same,T/C,"endpoint: median tumor weight change, dose: 500.0 mg/kg/injection, schedule: Q01DX001 (ip), vehicle: other",83 % of control
same,T/C,"endpoint: median tumor weight change, dose: 1000.0 mg/kg/injection, schedule: Q01DX001 (ip), vehicle: other",109 % of control
same,T/C,"endpoint: median tumor weight change, dose: 2000.0 mg/kg/injection, schedule: Q01DX001 (ip), vehicle: other",119 % of control
COP12(OCCO1)SC(C(F)(F)F)=C(C(F)(F)F)S2,T/C,[1],210 % of control
same,T/C,[2],183 % of control
same,T/C,"endpoint: median tumor weight (est.), dose: 100.0 mg/kg/injection, schedule: Q07DX005 (ip), vehicle: saline",351 % of control
same,T/C,[3],159 % of control
same,T/C,"endpoint: median tumor weight (est.), dose: 400.0 mg/kg/injection, schedule: Q07DX005 (ip), vehicle: saline",72 % of control
CNc1nc(NC)nc(NC)n1,T/C,[4],83 % of control
same,T/C,"endpoint: median tumor weight (est.), dose: 12.5 mg/kg/injection, schedule: Q07DX006 (ip), vehicle: Klucel (hydroxypropylcellulose) (HPC)",86 % of control
same,T/C,[5],163 % of control
same,T/C,"endpoint: median tumor weight (est.), dose: 25.0 mg/kg/injection, schedule: Q07DX006 (ip), vehicle: Klucel (hydroxypropylcellulose) (HPC)",72 % of control
same,T/C,[6],107 % of control
same,T/C,"endpoint: median tumor weight (est.), dose: 50.0 mg/kg/injection, schedule: Q07DX006 (ip), vehicle: Klucel (hydroxypropylcellulose) (HPC)",203 % of control
same,T/C,[7],93 % of control
same,T/C,"endpoint: median tumor weight (est.), dose: 100.0 mg/kg/injection, schedule: Q07DX006 (ip), vehicle: Klucel (hydroxypropylcellulose) (HPC)",294 % of control
same,T/C,[8],174 % of control
same,T/C,"endpoint: median tumor weight (est.), dose: 200.0 mg/kg/injection, schedule: Q07DX006 (ip), vehicle: Klucel (hydroxypropylcellulose) (HPC)",117 % of control
same,T/C,[9],65 % of control
C[PH+](C)C.C[PH+](C)C.[Au],T/C,"endpoint: median tumor weight change, dose: 1.5 mg/kg/injection, schedule: Q01DX001 (ip), vehicle: saline",112 % of control
same,T/C,"endpoint: median tumor weight change, dose: 3.0 mg/kg/injection, schedule: Q01DX001 (ip), vehicle: saline",77 % of control
same,T/C,[10],95 % of control
same,T/C,"endpoint: median tumor weight change, dose: 12.5 mg/kg/injection, schedule: Q01DX001 (ip), vehicle: saline",60 % of control and 80 % of control
[Cl][Hg][Cl],T/C,"endpoint: median tumor weight change, dose: 1.56 mg/kg/injection, schedule: Q01DX001 (ip), vehicle: saline",87 % of control
same,T/C,[10],71 % of control
CC(=O)O[C@H]1C(=O)[C@@]2(C)[C@H]([C@H](OC(=O)c3ccccc3)[C@]3(O)C[C@H](OC(=O)[C@H](O)[C@@H](NC(=O)c4ccccc4)c4ccccc4)C(C)=C1C3(C)C)[C@]1(OC(C)=O)CO[C@@H]1C[C@@H]2O,T/C,"endpoint: median tumor weight (est.), dose: 15.0 mg/kg/injection, schedule: Q07DX005 (ip), vehicle: Klucel (hydroxypropylcellulose) (HPC)",57 % of control
Nc1nc2ccc(NCc3ccc(C(=O)NC(CCC(=O)O)C(=O)O)cc3)cc2c(=O)[nH]1 (configuration not stated),T/C,[11],115 % of control
same,T/C,"endpoint: median tumor weight change, dose: 100.0 mg/kg/injection, schedule: Q01DX001 (ip), vehicle: saline with Tween-80",68 % of control
CC[As](=O)(O)CC,T/C,"endpoint: mean tumor weight, dose: 12.5 mg/kg/injection, schedule: Q07DX005 (ip), vehicle: saline",100 % of control
same,T/C,"endpoint: mean tumor weight, dose: 12.5 mg/kg/injection, schedule: Q07DX007 (ip), vehicle: saline",70 % of control
same,T/C,"endpoint: mean tumor weight, dose: 25.0 mg/kg/injection, schedule: Q07DX005 (ip), vehicle: saline",34 % of control
same,T/C,"endpoint: mean tumor weight, dose: 25.0 mg/kg/injection, schedule: Q07DX007 (ip), vehicle: saline",56 % of control
same,T/C,"endpoint: mean tumor weight, dose: 50.0 mg/kg/injection, schedule: Q07DX007 (ip), vehicle: saline",38 % of control
same,T/C,"endpoint: mean tumor weight, dose: 100.0 mg/kg/injection, schedule: Q07DX005 (ip), vehicle: saline",98 % of control
same,T/C,"endpoint: mean tumor weight, dose: 100.0 mg/kg/injection, schedule: Q07DX007 (ip), vehicle: saline",111 % of control
same,T/C,"endpoint: mean tumor weight, dose: 200.0 mg/kg/injection, schedule: Q07DX005 (ip), vehicle: saline",41 % of control
same,T/C,"endpoint: mean tumor weight, dose: 200.0 mg/kg/injection, schedule: Q07DX007 (ip), vehicle: saline",53 % of control
same,T/C,"endpoint: median tumor weight (est.), dose: 12.5 mg/kg/injection, schedule: Q07DX005 (ip), vehicle: saline",96 % of control and 119 % of control
same,T/C,[1],62 % of control and 79 % of control
same,T/C,[2],121 % of control
same,T/C,[3],20 % of control and 41 % of control and 43 % of control
C1OC1CO[C@@H]1CO[C@H]2[C@@H]1OC[C@H]2OCC1CO1 (some centres not stated),T/C,[4],44 % of control
same,T/C,[5],53 % of control
same,T/C,"endpoint: median tumor weight (est.), dose: 25.0 mg/kg/injection, schedule: Q07DX005 (ip), vehicle: suspension in saline",108 % of control
same,T/C,[6],84 % of control
same,T/C,"endpoint: median tumor weight (est.), dose: 50.0 mg/kg/injection, schedule: Q07DX005 (ip), vehicle: suspension in saline",64 % of control
same,T/C,[7],108 % of control
same,T/C,"endpoint: median tumor weight (est.), dose: 100.0 mg/kg/injection, schedule: Q07DX005 (ip), vehicle: suspension in saline",48 % of control
same,T/C,[8],57 % of control
same,T/C,"endpoint: median tumor weight (est.), dose: 200.0 mg/kg/injection, schedule: Q07DX005 (ip), vehicle: suspension in saline",51 % of control
same,T/C,[9],16 % of control
same,T/C,"endpoint: median tumor weight (est.), dose: 400.0 mg/kg/injection, schedule: Q07DX005 (ip), vehicle: suspension in saline",9 % of control
Cc1nc(N)nc(N)c1-c1ccc(Cl)c(Cl)c1,T/C,"endpoint: mean tumor weight (est.), dose: 10.0 mg/kg/injection, schedule: Q07DX003 (ip), vehicle: saline with Tween-80",120 % of control
same,T/C,"endpoint: median tumor weight change, dose: 12.5 mg/kg/injection, schedule: Q01DX001 (ip), vehicle: saline with Tween-80",20 % of control
same,T/C,"endpoint: median tumor weight change, dose: 12.5 mg/kg/injection, schedule: Q01DX001 (ip), vehicle: suspension in saline",79 % of control
same,T/C,[11],50 % of control
same,T/C,"endpoint: median tumor weight change, dose: 25.0 mg/kg/injection, schedule: Q01DX001 (ip), vehicle: suspension in saline",38 % of control
same,T/C,"endpoint: median tumor weight change, dose: 50.0 mg/kg/injection, schedule: Q01DX001 (ip), vehicle: saline with Tween-80",8 % of control
same,T/C,"endpoint: median tumor weight change, dose: 50.0 mg/kg/injection, schedule: Q01DX001 (ip), vehicle: suspension in saline",12 % of control
CC1(C)CC1(Br)Br,T/C,"endpoint: median tumor weight (est.), dose: 12.5 mg/kg/injection, schedule: Q07DX005 (ip), vehicle: saline with Tween-80",69 % of control
same,T/C,"endpoint: median tumor weight (est.), dose: 25.0 mg/kg/injection, schedule: Q07DX005 (ip), vehicle: saline with Tween-80",90 % of control
same,T/C,"endpoint: median tumor weight (est.), dose: 50.0 mg/kg/injection, schedule: Q07DX005 (ip), vehicle: saline with Tween-80",116 % of control
same,T/C,"endpoint: median tumor weight (est.), dose: 100.0 mg/kg/injection, schedule: Q07DX005 (ip), vehicle: saline with Tween-80",59 % of control
O=C(CCCN1CCC(O)(c2cccc(C(F)(F)F)c2)CC1)c1ccc(F)cc1,T/C,"endpoint: median tumor weight (est.), dose: 3.12 mg/kg/injection, schedule: Q07DX005 (ip), vehicle: Klucel (hydroxypropylcellulose) (HPC)",116 % of control and 118 % of control
same,T/C,[6],55 % of control and 62 % of control
